Measurements published in US20250163119A1, “COMPOUNDS FOR THE TREATMENT OF DIABETES OR OBESITY” (Eli Lilly and Company, priority 2023, published 2025).
*1 amine or outer side, *2 acyl side, *3 side chain or, on linkers, in order; H or OH if unused. Where a SMILES comes first, the peptide text is derived from it. Side-chain parts run from the residue outwards. [ ]: non-standard residue; d: D form. The star is where a group is joined. C20 diacid = O=C(O)CCCCCCCCCCCCCCCCCCC(=O)*; γGlu = O=C(O)[C@H](CCC(=O)[*:2])N[*:1]; εLys = N[C@@H](CCCCN[*:1])C(=O)[*:2]; αMeL = CC(C)C[C@](C)(N)C(=O)O; AEEA = NCCOCCOCC(=O)O

Assays:
human CRHR2 = target: T1, human CRHR2 (Homo sapiens, UniProt Q13324); test: Human CRHR2 cAMP assay (HTRF) in HEK293 cells stably expressing human CRHR2; type: cell-based; conditions: HEK293 cells overexpressing human CRHR2; relative EC50, maximum 10 nM human UCN2; mean ± SE; read-out: hCRHR2 cAMP EC50 (pM, ± SE)
T1 construct: expressed in transfected cells
T1 sequence (Q13324 1-438 isoform Q13324-2): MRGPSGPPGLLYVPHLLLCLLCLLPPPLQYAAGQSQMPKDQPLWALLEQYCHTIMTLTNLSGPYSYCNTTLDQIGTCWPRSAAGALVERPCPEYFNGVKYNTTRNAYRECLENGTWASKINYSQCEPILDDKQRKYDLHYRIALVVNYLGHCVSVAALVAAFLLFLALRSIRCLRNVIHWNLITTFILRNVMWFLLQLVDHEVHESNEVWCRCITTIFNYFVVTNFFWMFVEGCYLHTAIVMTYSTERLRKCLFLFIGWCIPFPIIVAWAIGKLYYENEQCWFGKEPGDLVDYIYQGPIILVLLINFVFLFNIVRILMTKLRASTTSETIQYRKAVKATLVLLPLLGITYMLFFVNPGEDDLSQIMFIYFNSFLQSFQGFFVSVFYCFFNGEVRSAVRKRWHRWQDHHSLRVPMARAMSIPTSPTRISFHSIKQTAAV
In short: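 Gs-coupled receptor activation was followed as intracellular cAMP in stably transfected HEK293 cells, 25,000 (CRHR1) or 5,000 (CRHR2) per well, with 0.25 mM IBMX present. Stimulation lasted 1 h at 37° C for CRHR1 and 30 min at room temperature for CRHR2.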

human CRHR1 = target: T2, human CRHR1 (Homo sapiens, UniProt P34998); test: Human CRHR1 cAMP assay (HTRF) in HEK293 cells stably expressing human CRHR1; type: cell-based; conditions: HEK293 cells overexpressing human CRHR1; relative EC50, maximum 66 nM human UCN1; mean ± SE; read-out: hCRHR1 cAMP EC50 (pM, ± SE)
T2 construct: expressed in transfected cells
T2 sequence (P34998 24-415): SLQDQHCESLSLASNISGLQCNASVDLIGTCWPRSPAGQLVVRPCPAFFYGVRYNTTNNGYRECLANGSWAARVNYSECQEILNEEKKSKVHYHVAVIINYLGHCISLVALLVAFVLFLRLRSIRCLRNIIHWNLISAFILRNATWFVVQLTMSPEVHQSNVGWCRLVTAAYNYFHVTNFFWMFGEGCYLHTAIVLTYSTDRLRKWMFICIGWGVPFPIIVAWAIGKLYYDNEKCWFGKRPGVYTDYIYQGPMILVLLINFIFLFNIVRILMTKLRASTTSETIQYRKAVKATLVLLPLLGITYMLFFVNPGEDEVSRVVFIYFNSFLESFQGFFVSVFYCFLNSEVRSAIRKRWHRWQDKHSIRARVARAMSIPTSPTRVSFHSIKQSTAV
Protocol: The corticotropin-releasing hormone (CRH) receptor 1 and 2 (CRHR1 and CRHR2) are GPCRs that were functionally coupled to Gs proteins. Stimulation of these receptors results in an increased production of intracellular cAMP, which can be detected using standard in vitro technologies. In vitro activity of peptides was measured by the amount of cAMP formed in human CRHR1 and CRHR2 overexpressed cells.
Human CRHR1 and CRHR2 receptors were stably expressed in human embryonic kidney cells (HEK293) under control of a pcDNA expression vector. The HEK293 cell line was cultured in DMEM 1× (Gibco, 93-0152DK) supplemented with 10% FBS, 1 mM sodium pyruvate, 1×MEM NEAA, 1× GlutaMAX and 10 mM HEPES. The plasmids of human CRHR1-pQCXIP (T7364) and human CRHR2b-R2683puro (T16761) DNA were transfected into HEK293 cells using Lipo fectAMINE 3000 Transfection reagent (Invitrogen, L3000001). After 20 days under selection, the mRNA levels from different clones were measured to confirm the expression of human CRHR1 and CRHR2 genes. To determine the function of over-expressed CRHR cells, the intracellular cAMP levels in response to human UCN1 and UCN2 were measured and compared to the expression of CRHR1 and CRHR2 mRNA in each clone.
Human CRHR1 cells were cultured in DMEM 1× (Gibco, 93-0152DK) supplemented with 10% FBS, 1 mM sodium pyruvate, 1×MEM NEAA, 1×GlutaMAX, 10 mM HEPES, and 800 μg/ml G418. Human CRHR2 cells were cultured at the same media (DMEM 1×, 10% FBS, 1 mM sodium pyruvate, 1×MEM NEAA, 1×GlutaMAX, 10 mM HEPES) in the presence of 0.5 ug/mL puromycin. Cultured cells were grown to 90% confluency and harvested. The cells were frozen at 10×10e6/ml in a mixture of […] fetal bovine serum plus 7% DMSO and stored in liquid nitrogen until use.
On the day of the assay, the frozen cells were thawed and diluted in assay buffer (Phenol Red free MEM (Corning, 17-305-CV, lot #32121010), 0.1% Casein (Sigma C4765, lot #SLCG2120), 5 mM HEPES pH 7.4 containing 0.25 mM IBMX). 10 ul of human CRHR1 cells (25,000 cells) or 10 μL of human CRHR2 cells (5,000 cells) were dispensed into each well of white poly-D-lysine coated 384-well plates (Corning cat #354661). Test compounds diluted in DMSO were added (200 nL/well) in a 1:3 dilution series using ECHO acoustic liquid handler (Beckman). The mixture of cells and test compounds were incubated at 37° C. for 1 hour for the hCRHR1 plate, while the CRHR2 plates were incubated at room temperature for 30 min.
The amount of intracellular cAMP was quantitated using HTRF technology (Homogeneous Time Resolved Fluorescence; Cisbio) as per vendor instructions. Briefly, 10 uL CAMP-d2 conjugate and 10 uL anti-CAMP-cryptate conjugate in lysis buffer were incubated with the treated cells at room temperature for 60 min. The HTRF signal was immediately detected using an Envision plate reader (Perkin-Elmer) to calculate the ratio of fluorescence at 665 to 620 nm.
Raw fluorescence data for concentration curves of the peptides in Table 2 and Table 3 were converted to cAMP amount (pmol/well) using a cAMP standard curve generated for each experiment.

CC[C@H](C)[C@H](NC(C)=O)C(=O)N[C@H](C(=O)N[C@H](C(=O)N[C@@H](CO)C(=O)N[C@@](C)(CC(C)C)C(=O)N[C@@H](CC(=O)O)C(=O)N[C@@H](C(=O)N1CCC[C@H]1C(=O)N[C@H](C(=O)NCC(=O)N[C@@](C)(CC(C)C)C(=O)N[C@@H](CC(C)C)C(=O)N[C@@H](CCC(N)=O)C(=O)N[C@H](C(=O)N[C@@H](CCCCN)C(=O)N[C@@H](CC(C)C)C(=O)N[C@@H](CCC(=O)O)C(=O)N[C@@H](CCC(N)=O)C(=O)N[C@@H](CCC(=O)O)C(=O)N[C@@H](CCCNC(=N)N)C(=O)N[C@@H](C)C(=O)N[C@@H](CCC(=O)O)C(=O)N[C@@H](CCCCN)C(=O)N[C@@H](C)C(=O)N[C@@H](CCCNC(=N)N)C(=O)N[C@@H](CCC(N)=O)C(=O)N[C@@H](CCC(N)=O)C(=O)N[C@@H](C)C(=O)N[C@@H](CCCCNC(=O)COCCOCCNC(=O)CC[C@H](NC(=O)[C@@H](N)CCCCNC(=O)CCCCCCCCCCCCCCCCCCC(=O)O)C(=O)O)C(=O)N[C@@H](CCC(=O)O)C(=O)N[C@@H](CC(N)=O)C(=O)N[C@H](C(=O)N[C@@H](CCC(=O)O)C(=O)N[C@H](C(=O)N[C@@H](CC(C)C)C(=O)N[C@@H](C)C(=O)N[C@@H](CCC(N)=O)C(=O)N[C@H](C(N)=O)C(C)C)[C@@H](C)CC)[C@@H](C)O)[C@@H](C)CC)[C@@H](C)O)C(C)C)[C@@H](C)O)C(C)C [SEQ ID NO: 33, Ac-IVTS αMeL D (D-Val) PTG αMeL LQIKLEQERAEKARQQAK((2-[2-(2-Amino-ethoxy)-ethoxy]-acetyl)-γE-ϵK-CO-(CH2)18-CO2H)ENTEILAQV-NH2] (Ac-IVTS[αMeL]D[dV]PTG[αMeL]LQIKLEQERAEKARQQAK([AEEA-γGlu-εLys-C20 diacid])ENTEILAQV-NH2)
EC50 (human CRHR2): 4.6 ± 0.6 pM
EC50 (human CRHR1): 1.1e+06 pM

CC[C@H](C)[C@H](NC(C)=O)C(=O)N[C@H](C(=O)N[C@H](C(=O)N[C@@H](CO)C(=O)N[C@@](C)(CC(C)C)C(=O)N[C@@H](CC(=O)O)C(=O)N[C@@H](C(=O)N1CCC[C@H]1C(=O)N[C@H](C(=O)NCC(=O)N[C@@](C)(CC(C)C)C(=O)N[C@@H](CC(C)C)C(=O)N[C@@H](CCC(N)=O)C(=O)N[C@H](C(=O)N[C@@H](CCCCN)C(=O)N[C@@H](CC(C)C)C(=O)N[C@@H](CCC(=O)O)C(=O)N[C@@H](CCC(N)=O)C(=O)N[C@@H](CCC(=O)O)C(=O)N[C@@H](CCCNC(=N)N)C(=O)N[C@@H](C)C(=O)N[C@@H](CCC(=O)O)C(=O)N[C@@H](CCCCN)C(=O)N[C@@H](C)C(=O)N[C@@H](CCCNC(=N)N)C(=O)N[C@@H](CCC(N)=O)C(=O)N[C@@H](CCC(N)=O)C(=O)N[C@@H](C)C(=O)N[C@@H](CCCCNC(=O)[C@@H](N)CCCCNC(=O)COCCOCCNC(=O)CC[C@H](NC(=O)CCCCCCCCCCCCCCCCCCC(=O)O)C(=O)O)C(=O)N[C@@H](CCC(=O)O)C(=O)N[C@@H](CC(N)=O)C(=O)N[C@H](C(=O)N[C@@H](CCC(=O)O)C(=O)N[C@H](C(=O)N[C@@H](CC(C)C)C(=O)N[C@@H](C)C(=O)N[C@@H](CCC(N)=O)C(=O)N[C@H](C(N)=O)C(C)C)[C@@H](C)CC)[C@@H](C)O)[C@@H](C)CC)[C@@H](C)O)C(C)C)[C@@H](C)O)C(C)C [SEQ ID NO: 34, Ac-IVTS αMeL D (D-Val) PTG αMeL LQIKLEQERAEKARQQAK(ϵK-(2-[2-(2-Amino-ethoxy)-ethoxy]-acetyl)-γE-CO-(CH2)18-CO2H)ENTEILAQV-NH2] (Ac-IVTS[αMeL]D[dV]PTG[αMeL]LQIKLEQERAEKARQQAK([εLys-AEEA-γGlu-C20 diacid])ENTEILAQV-NH2)
EC50 (human CRHR2): 4.9 ± 0.7 pM
EC50 (human CRHR1): > 1e+07 pM
